Data taken from US12257264B2, “Combination therapy for HIV with adenosine derivative and capsid inhibitors” (Brii Biosciences, Inc., priority 2021, dated 2025).

How the values were obtained:
[1] = Liver S9 stability and conversion to EFdA; type: in vitro ADME, human
Experimental: Intermediate solution: Dilute 5 μL of compounds or controls (7-ethoxycoumarin) from stock solution (10 mM) with 495 μL MeOH (Conc.: 100 μM, 1% DMSO, 99% MeOH). Stop solution: Cold ACN (including 100 ng/mL Tolbutamide and Labetalol as internal standard). Add 2 μL test compound or control working solution/well to all plates (T0, T5, T10, T20, T30, T60, NCF60) except matrix blank. Add 600 μL/well stop solution (cold in 4° C., including 100 ng/mL Tolbutamide/100 ng/mL Labetalol) to terminate the TO plate, then put it on ice. Dispense 840 μL/well S9 solution to 96-well plate as reservoir according to plate map. Then add 100 μL/well to every plate by Apricot. Incubate S9 solution and compound at 37° C. for about 10 min except NCF60 and TO. After adding S9 solution and 98 μLPB buffer to NCF60, incubate at 37° C. without pre-warming, start timer 1. After 60 min, add 600 μL/well stop solution to terminate the reaction. After pre-warming, dispense 760 μL/well cofactor solution to 96-well plate as reservoir according to plate map. Then add 98 μL/well to every plate by Apricot to start reaction. Incubate at 37° C., start timer 2, Add 600 μL/well stop solution (cold in 4° C., including 100 ng/mL Tolbutamide and Labetalol) to terminate the reaction. Samples are centrifuged at 4000 rpm for 20 min. While centrifuging, load 8×new 96-well plate with 300 μL HPLC water, then transfer 100 μL supernatant, mix with water for LC/MS/MS, transferred to Bioanalytical Services for LC-MS/MS analysis. Use equation of first order kinetics to calculate t1/2 and CL: Equation of first order kinetics: […]

[2] = system: HIV-1 NL4-3 in MT-4 cells; assay: Two-drug combination antiviral cytoprotection (CPE) assay, MacSynergy II analysis; type: cell-based; conditions: HIV-1 NL4-3 virus in MT4 cells
Experimental: On the day preceding the assay, the cells were split 1:2 to assure they were in an exponential growth phase at the time of infection.
Combination cytotoxicity was evaluated in parallel on two identical assay plates (i.e., duplicate measurements) that included cell control wells.

[3] = Plasma stability and conversion to EFdA
Experimental: The pooled frozen plasma was thawed in a water bath at 37° C. prior to experiment. Plasma was centrifuged at 4000 rpm for 5 min and the clots were removed if any. The pH will be adjusted to 7.4±0.1 if required.
Preparation of test compounds and positive control (propantheline bromide): 1 mM intermediate solution was prepared by diluting 10 μL of the stock solution with 90 μL MeOH; 1 mM intermediate of positive control Propantheline was prepared by diluting 10 μL of the stock solution with 90 μL ultrapure water. 100 μM dosing solution was prepared by diluting 20 μL of the intermediate solution (1 mM) with 180 μL MeOH. 98 μL of blank plasma was spiked with 2 μL of dosing solution (100 μM) to achieve 2 μM of the final concentration in duplicate and samples were incubated at 37° C. in a water bath. At each time point (0, 10, 30, 60 and 120 min), […] of stop solution (0.1% FA in MeOH containing 200 ng/mL tolbutamide and 200 ng/mL Labetalol) was added to precipitate protein and mixed thoroughly. Centrifuged sample plates at 4,000 rpm for 10 min. An aliquot of supernatant (100 μL) was transferred from each well to another plates.
Data analysis: The % remaining of test compound after incubation in plasma was calculated using following equation: % Remaining=100×(PAR at appointed incubation time/PAR at T0 time) where PAR is the peak area ratio of analyte versus internal standard (IS) (LC/MS/MS mobile phase condition: 0.1% Formic Acid in Water/0.1% Formic Acid in Acetonitrile. The appointed incubation time points are TO (0 min), Tn (n=0, 10, 30, 60, 120 min). Liver S9 Stability

Compound: C#C[C@]1(COC(=O)OCc2oc(=O)oc2C)O[C@@H](n2cnc3c(N)nc(F)nc32)C[C@@H]1O [Formula 4-A, ((2R,3S,5R)-5-(6-amino-2-fluoro-9H-purin-9-yl)-2-ethynyl-3-hydroxytetrahydrofuran-2-yl)methyl ((5-methyl-2-oxo-1,3-dioxol-4-yl)methyl) carbonate]
- Conversion to the target drug (EFdA) in liver S9 assay [1]: converted to the target drug efficiently
- Stability in Human Liver S9 Formation of EFdA ([1]; human liver S9): Yes
- half-life at 1 µM ([1]; human liver S9, 37° C.): < 50 min
- Antiviral activity upon combination with lenacapavir [2]: synergistic antiviral activity
- Conversion to the target drug (EFdA) in human plasma assay [3]: converted to the target drug efficiently
- Stability in Human Plasma Formation of EFdA ([3]; human plasma): Yes
- half-life at 2 µM ([3]; human, plasma, pH 7.4): < 50 min
